Values joined by “and” are separate entries in the source; they are usually repeats but may differ in a detail not shown here. Identical values can stand only once. Inconclusive results and toxic doses are left out.

The experiment concerns BDF1 mice, P388 leukemia ip, median survival T/C. Nature of the experiment: NCI In Vivo Anticancer Drug Screen. Data for tumor model P388 Leukemia (intraperitoneal) in B6D2F1 (BDF1) mice. Particulars: endpoint: median survival time, higher = longer survival. Summed up: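 Antitumour effect was judged in vivo: survival in drug-treated mice, normalised to that of vehicle-dosed controls, gives the reported T/C.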

The mark [1] stands for this setting: dose: 12.5 mg/kg/injection, schedule: Q01DX009 (ip), vehicle: saline.
The mark [2] stands for this setting: dose: 25.0 mg/kg/injection, schedule: Q01DX009 (ip), vehicle: saline.
Setting [3] is: dose: 25.0 mg/kg/injection, schedule: Q04DX003 (ip), vehicle: saline.
Where [4] appears, read: dose: 50.0 mg/kg/injection, schedule: Q01DX009 (ip), vehicle: saline.
[5] abbreviates: dose: 50.0 mg/kg/injection, schedule: Q04DX003 (ip), vehicle: saline.
[6] abbreviates: dose: 100.0 mg/kg/injection, schedule: Q04DX003 (ip), vehicle: saline.
[7] abbreviates: dose: 100.0 mg/kg/injection, schedule: Q01DX009 (ip), vehicle: saline.
Setting [8] is: dose: 200.0 mg/kg/injection, schedule: Q01DX009 (ip), vehicle: saline.
Where [9] appears, read: dose: 200.0 mg/kg/injection, schedule: Q04DX003 (ip), vehicle: saline.
The mark [10] stands for this setting: dose: 400.0 mg/kg/injection, schedule: Q04DX003 (ip), vehicle: saline.
Setting [11] is: dose: 100.0 mg/kg/injection, schedule: Q04DX002 (ip), vehicle: saline with Tween-80.
Where [12] appears, read: dose: 200.0 mg/kg/injection, schedule: Q04DX002 (ip), vehicle: saline with Tween-80.
[13] abbreviates: dose: 400.0 mg/kg/injection, schedule: Q04DX002 (ip), vehicle: saline with Tween-80.
The mark [14] stands for this setting: dose: 400.0 mg/kg/injection, schedule: Q01DX009 (ip), vehicle: saline.
[15] abbreviates: dose: 100.0 mg/kg/injection, schedule: Q01DX009 (ip), vehicle: saline with Tween-80.
Where [16] appears, read: dose: 100.0 mg/kg/injection, schedule: Q04DX003 (ip), vehicle: saline with Tween-80.
The mark [17] stands for this setting: dose: 200.0 mg/kg/injection, schedule: Q01DX009 (ip), vehicle: saline with Tween-80.
The mark [18] stands for this setting: dose: 200.0 mg/kg/injection, schedule: Q04DX003 (ip), vehicle: saline with Tween-80.
Setting [19] is: dose: 400.0 mg/kg/injection, schedule: Q04DX003 (ip), vehicle: saline with Tween-80.
Setting [20] is: dose: 50.0 mg/kg/injection, schedule: Q01DX009 (ip), vehicle: saline with Tween-80.
Setting [21] is: dose: 400.0 mg/kg/injection, schedule: Q01DX009 (ip), vehicle: saline with Tween-80.

`C[N+](C)(C)c1ncnc2nc[nH]c12`: the T/C is, setting by setting: (dose: 15.0 mg/kg/injection, schedule: Q01DX010 (ip), vehicle: saline) 91 % of control and 100 % of control; (dose: 30.0 mg/kg/injection, schedule: Q01DX010 (ip), vehicle: saline) 100 % of control and 104 % of control; (dose: 60.0 mg/kg/injection, schedule: Q01DX010 (ip), vehicle: saline) 91 % of control and 100 % of control; (dose: 100.0 mg/kg/injection, schedule: Q01DX001 (ip), vehicle: saline) 100 % of control; (dose: 120.0 mg/kg/injection, schedule: Q01DX010 (ip), vehicle: saline) 91 % of control and 95 % of control; (dose: 200.0 mg/kg/injection, schedule: Q01DX001 (ip), vehicle: saline) 110 % of control.

With `O=C1c2ccccc2C(=O)c2c(NCCN3CCCCC3)ccc(NCCN3CCCCC3)c21`, the T/C (dose: 50.0 mg/kg/injection, schedule: Q01DX009 (ip), vehicle: other) was 115 % of control.

With `NNC(=O)C1CC1`, the T/C (dose: 6.25 mg/kg/injection, schedule: Q01DX009 (ip), vehicle: saline) is 96 % of control; the T/C under setting [1] is 107 % of control; the T/C under setting [2] is 100 % of control; the T/C under setting [3] is 100 % of control; the T/C under setting [4] was 100 % of control; the T/C under setting [5] was 100 % of control. Moreover, the T/C under setting [6] was 104 % of control.

As to `NC(Cc1ccc(O)c(I)c1)C(=O)O` (centres undefined), the T/C was 109 % of control under setting [2]; 113 % of control under setting [4]; 110 % of control under setting [5]; 120 % of control under setting [7]; 110 % of control under setting [6]; 95 % of control under setting [8]. Also, the T/C is, setting by setting: under setting [9], 115 % of control; under setting [10], 110 % of control.

As for `CC(C)(C)[Si](C)(C)OC(=O)NCCCl`, the T/C is 100 % of control under setting [11], 109 % of control under setting [12] and 118 % of control under setting [13].

In the case of `COC(=O)CSC/C(=N\Nc1ccccc1)c1ccccc1`, the T/C by setting is: (dose: 100.0 mg/kg/injection, schedule: Q01DX001 (ip), vehicle: Klucel (hydroxypropylcellulose) (HPC)) 95 % of control; (dose: 200.0 mg/kg/injection, schedule: Q01DX001 (ip), vehicle: Klucel (hydroxypropylcellulose) (HPC)) 100 % of control; (dose: 400.0 mg/kg/injection, schedule: Q01DX001 (ip), vehicle: Klucel (hydroxypropylcellulose) (HPC)) 109 % of control.

In the case of `O=C(O)c1ccccc1Oc1ccccc1C(=O)O`, the T/C runs as follows: under setting [7], 100 % of control; under setting [8], 90 % of control; under setting [14], 104 % of control.

Regarding `O=C1CCCCC1Oc1ccccc1` (centres undefined), the T/C was 95 % of control under setting [15]; 95 % of control under setting [16]; 91 % of control under setting [17]; 100 % of control under setting [18]; 100 % of control under setting [19].

In the case of `COc1cc2ccc3ccncc3c2cc1OC`, the T/C by setting is: under setting [1], 95 % of control; under setting [2], 100 % of control; under setting [3], 95 % of control; under setting [4], 90 % of control; under setting [5], 113 % of control; under setting [6], 86 % of control.

Take `O=C(COc1ccc(Cl)c(Cl)c1)N(Cc1ccccc1)Cc1cccnc1`: the T/C reads like this: (dose: 50.0 mg/kg/injection, schedule: Q04DX003 (ip), vehicle: Klucel (hydroxypropylcellulose) (HPC)) 86 % of control; (dose: 100.0 mg/kg/injection, schedule: Q04DX003 (ip), vehicle: Klucel (hydroxypropylcellulose) (HPC)) 95 % of control; (dose: 200.0 mg/kg/injection, schedule: Q04DX003 (ip), vehicle: Klucel (hydroxypropylcellulose) (HPC)) 104 % of control.

On to `CC(=O)N1C(=O)NC(=O)C1(C)c1ccco1` (centres undefined), for which the T/C is 122 % of control (dose: 25.0 mg/kg/injection, schedule: Q01DX009 (ip), vehicle: saline with Tween-80); 112 % of control under setting [20]; 103 % of control and 122 % of control under setting [15]; 109 % of control and 113 % of control under setting [16]; 92 % of control and 115 % of control under setting [17]; 104 % of control and 122 % of control under setting [18]. Also, the T/C reads like this: under setting [21], 87 % of control; under setting [19], 90 % of control.

Take `CC(C)N(c1c2c(oc(=O)c1Cl)CCSC2)C(C)C`: the T/C is 99 % of control under setting [11], 101 % of control under setting [12] and 96 % of control under setting [13].

In the case of `O=C(Nc1ccc(Nc2ccncc2)cc1)c1ccc(Nc2ccnc3ccc([N+](=O)[O-])cc23)cc1[N+](=O)[O-]`, the T/C is 93 % of control under setting [1]; 88 % of control under setting [4]; 111 % of control under setting [5]; 91 % of control under setting [7]; 105 % of control under setting [6]; 98 % of control under setting [8]. The T/C reads like this: under setting [9], 93 % of control; under setting [14], 119 % of control; under setting [10], 88 % of control.

Turning to `C[As](C)SC(CO)C1OC2OC(C)(C)OC2C1O` (centres undefined), the T/C runs as follows: (dose: 12.5 mg/kg/injection, schedule: Q01DX009 (ip), vehicle: saline + alcohol) 97 % of control; (dose: 25.0 mg/kg/injection, schedule: Q01DX009 (ip), vehicle: saline + alcohol) 100 % of control; (dose: 50.0 mg/kg/injection, schedule: Q01DX009 (ip), vehicle: saline + alcohol) 106 % of control.

As for `O=C(OCCCCOC(=O)c1cccc([N+](=O)[O-])c1)c1cccc([N+](=O)[O-])c1`, the T/C is 115 % of control (dose: 3.0 mg/kg/injection, schedule: Q04DX003 (ip), vehicle: saline with Tween-80); 110 % of control (dose: 6.0 mg/kg/injection, schedule: Q04DX003 (ip), vehicle: saline with Tween-80); 120 % of control (dose: 12.0 mg/kg/injection, schedule: Q04DX003 (ip), vehicle: saline with Tween-80).

On to `O=C1CSC(=O)CS1`, for which the T/C reads like this: under setting [20], 99 % of control; under setting [15], 93 % of control.

As to `CCOC(=O)/C=C(\C)C(C)=O`, the T/C under setting [15] is 104 % of control; the T/C under setting [16] is 109 % of control; the T/C under setting [17] was 109 % of control; the T/C under setting [18] is 104 % of control; the T/C under setting [21] was 113 % of control; the T/C under setting [19] was 118 % of control.

With `CCOc1ccc(Nc2c3ccccc3nc3ccccc23)cc1`, the T/C runs as follows: (dose: 0.39 mg/kg/injection, schedule: Q01DX009 (ip), vehicle: Klucel (hydroxypropylcellulose) (HPC)) 110 % of control; (dose: 0.78 mg/kg/injection, schedule: Q01DX009 (ip), vehicle: Klucel (hydroxypropylcellulose) (HPC)) 114 % of control; (dose: 1.56 mg/kg/injection, schedule: Q01DX009 (ip), vehicle: Klucel (hydroxypropylcellulose) (HPC)) 96 % of control; (dose: 50.0 mg/kg/injection, schedule: Q01DX009 (ip), vehicle: Klucel (hydroxypropylcellulose) (HPC)) 159 % of control.

For the compound `CN(C(=N)N)c1ccc(C(=O)Oc2ccc([N+](=O)[O-])cc2)cc1`, the T/C runs as follows: (dose: 12.5 mg/kg/injection, schedule: Q01DX009 (ip), vehicle: water) 100 % of control; (dose: 18.75 mg/kg/injection, schedule: Q04DX003 (ip), vehicle: water) 104 % of control; (dose: 25.0 mg/kg/injection, schedule: Q01DX009 (ip), vehicle: water) 100 % of control; (dose: 37.5 mg/kg/injection, schedule: Q04DX003 (ip), vehicle: water) 109 % of control; (dose: 50.0 mg/kg/injection, schedule: Q01DX009 (ip), vehicle: water) 108 % of control; (dose: 75.0 mg/kg/injection, schedule: Q04DX003 (ip), vehicle: water) 104 % of control and 117 % of control. The T/C by setting is: (dose: 100.0 mg/kg/injection, schedule: Q01DX009 (ip), vehicle: water) 104 % of control; (dose: 100.0 mg/kg/injection, schedule: Q04DX003 (ip), vehicle: water) 99 % of control; (dose: 150.0 mg/kg/injection, schedule: Q04DX003 (ip), vehicle: water) 117 % of control; (dose: 200.0 mg/kg/injection, schedule: Q04DX003 (ip), vehicle: water) 89 % of control; (dose: 400.0 mg/kg/injection, schedule: Q04DX003 (ip), vehicle: water) 89 % of control.

The values are drawn from PubChem BioAssay AID328 (DTP/NCI, 2004).
